According to US10428055B2, “Substituted piperidines having GPR119 agonistic activity” (DONG-A ST CO., LTD., priority 2014, dated 2019):

Assays:
[1] = test system: C57BL/6 mouse; assay: Assessment of glucose tolerance improvement effect in mouse; assay type: in vivo; settings: 2 h; 10 mg/kg oral, 30 min before oral glucose 2 g/kg; male C57BL/6 mouse; blood glucose AUC
Description: <Experimental Example 2>Assessment of glucose tolerance improvement effect in mouse
As one of anti-diabetic effect indicators, the glucose tolerance improvement effect of the above compounds was evaluated in 7-week male laboratory mouse (C57BL/6 mouse), as the effect of improving postprandial glycemic control ability.
The laboratory mouse was fasted from the day before the experiment for 16-17 hours. The compound of the present invention was orally administered 30 minutes before administrating glucose, and after 30 minutes, a glucose solution (2 g/kg/10 ml) was orally administered. A drug was prepared by suspending in a 10% Gelucire solution. At the times immediately before drug administration, immediately before glucose solution administration, 15 minutes, 30 minutes, 60 minutes, 90 minutes, and 120 minutes after glucose administration, the whole blood glucose levels was measured from tail vein using a blood glucose meter (AccuChek Active, Roche Diagnostics), and the area under the curve of a temporal blood glucose curve was calculated. From the calculated area under the blood glucose curve, the area under the blood glucose curve of a negative control group to which no glucose solution was administered was subtracted, and inhibitory activity against blood glucose increase of a control group to which only the 10% Gelucire solution and glucose solution were administered was calculated as a percentage, thereby evaluating the glucose tolerance improvement efficacy of a drug.
The results are shown in Table 3, in which the glucose tolerance improvement effect represented at a dose of 10 mg/kg was represented by classifying into three groups, under 30%, more than 30% under 40%, and more than 40%. A significant glucose tolerance improvement effect was identified in 22 compounds on which the experiment was carried out, and among those compounds, 16 compounds represented an excellent in vivo activity of 30% inhibitory dose of 10 mg/kg or less. In the following Table 3, A represents an inhibitory activity more than 40%, B represents an inhibitory activity more than 30% under 40% and C represents an inhibitory activity under 30%.

[2] = target: T1, Human GPR119 (Homo sapiens, UniProt Q8TDV5); assay: Human GPR119 activation assay (cAMP, HTRF); assay type: cell-based; settings: 1 h, HEK293 cells transiently expressing human GPR119, relative to maximum effect of OEA, read-out: hGPR119 activation ability (cAMP assay) Relative Response % vs OEA; for Emax at 0.001 µM: 1 nM; for Emax at 0.01 µM: 10 nM
T1 construct: host or cells: HEK293 (ATCC)
T1 sequence (Q8TDV5 1-335): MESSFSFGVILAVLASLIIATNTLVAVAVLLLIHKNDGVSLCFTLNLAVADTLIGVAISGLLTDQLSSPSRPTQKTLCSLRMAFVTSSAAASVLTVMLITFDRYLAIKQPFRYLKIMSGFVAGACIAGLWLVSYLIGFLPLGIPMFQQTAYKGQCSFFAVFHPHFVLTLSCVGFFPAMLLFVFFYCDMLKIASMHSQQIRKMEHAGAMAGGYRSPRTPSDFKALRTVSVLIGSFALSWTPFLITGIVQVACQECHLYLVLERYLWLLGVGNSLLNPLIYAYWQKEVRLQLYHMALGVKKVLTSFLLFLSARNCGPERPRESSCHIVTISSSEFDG
From the text: <Experimental Example 1>Human GPR119 activation assay
Human GPR119 was temporarily expressed on cells, thereby quantifying the amount of cyclic adenosine 3′,5′-monophosphate (cAMP) increased upon activating GPR119 by the compound of the present invention, using the product from Cysbio, by a method of HTRF (homogeneous time resolved fluorescence), and such quantification was used to refer to efficacy on GPR119 activation.
Human GPR119 expression vector (Origene) was overexpressed in […] renal epithelial cells (HEK293) (ATCC), and the cells were stabilized for 48 hours. With a solution of 11.1 mM glucose, 0.1% bovine serum albumin, and 0.5 mM IBMX (3-isobutyl-1-methylxanthine) which is a phosphodiesterase inhibitor being added to a KRBH (Krebs-Ringer Bicarbonate HEPES; Hou ZQ. et al., Mol Cell Endocrinol, 2008(291):71-78) buffer, the cells were pre-treated for 10 minutes. Thereafter, the cells were treated with the same solution containing a drug for 60 minutes, then the supernatant was removed, and the increase in cAMP in cells was quantified using a Cysbio cAMP HiRange kit.
As to the maximum efficacy of compounds tested, multiple concentration assessment for the compounds of the present invention was carried out, thereby assessing the relative activation level (%) to the maximum effect of oleoylethanolamide (OEA), an endogenous ligand of GPR119.

Emax at 0.001 µM [2] [%]	Emax at 0.01 µM [2] [%]	SMILES	inhibition in vivo at 10 mg/kg [1] [%]
79.6	167	CCc1cnc(N2CCC(CCCOc3cc(F)c(C4=NC[C@H](C)O4)c(F)c3)CC2)nc1 [Example 4, (S)-2-(4-(3-(1-(5-ethylpyrimidin-2-yl)piperidin-4-yl)propoxy)-2,6-difluorophenyl)-5-methyl-4,5-dihydrooxazole]	< 30
493	830	CCc1cnc(N2CCC(CCCOc3cc(F)c(-c4nnc(C(C)C)o4)c(F)c3)CC2)nc1 [Example 44, 2-(4-(3-(1-(5-ethylpyrimidin-2-yl)piperidin-4-yl)propoxy)-2,6-difluorophenyl)-5-isopropyl-1,3,4-oxadiazole]	–
156	330	CCc1cnc(N2CCC(CCCOc3cc(F)c(-c4nnc(NC(C)C)o4)c(F)c3)CC2)nc1 [Example 45, 5-(4-(3-(1-(5-ethylpyrimidin-2-yl)piperidin-4-yl)propoxy)-2,6-difluorophenyl)-N-isopropyl-1,3,4-oxadiazol-2-amine]	–
163	441	CC(C)c1nnc(-c2c(F)cc(OCCCC3CCN(c4ncc(C(F)(F)F)cn4)CC3)cc2F)o1 [Example 48, 2-(2,6-difluoro-4-(3-(1-(5-(trifluoromethyl)pyrimidin-2-yl)piperidin-4-yl)propoxy)phenyl)-5-isopropyl-1,3,4-oxadiazole]	–
120	308	CCc1nnc(-c2c(F)cc(OCCCC3CCN(c4cnc(Cl)cn4)CC3)cc2F)o1 [Example 50, 2-(4-(3-(1-(5-chloropyrazin-2-yl)piperidin-4-yl)propoxy)-2,6-difluorophenyl)-5-ethyl-1,3,4-oxadiazole]	–
265	373	CCc1nnc(-c2c(F)cc(OCCCC3CCN(c4nc(C(C)C)no4)CC3)cc2F)o1 [Example 56, 5-(4-(3-(4-(5-ethyl-1,3,4-oxadiazol-2-yl)-3,5-difluorophenoxy)propyl)piperidin-1-yl)-3-isopropyl-1,2,4-oxadiazole]	–
285	516	CCc1cnc(N2CCC(CCCOc3cc(F)c(-c4nnc(C(C)C)s4)c(F)c3)CC2)nc1 [Example 60, 2-(4-(3-(1-(5-ethylpyrimidin-2-yl)piperidin-4-yl)propoxy)-2,6-difluorophenyl)-5-isopropyl-1,3,4-thiadiazole]	–
98.1	186	CCCc1cnc(N2CCC(CCCOc3cc(F)c(-c4nnc(C(C)C)s4)c(F)c3)CC2)nc1 [Example 61, 2-(2,6-difluoro-4-(3-(1-(5-propylpyrimidin-2-yl)piperidin-4-yl)propoxy)phenyl)-5-isopropyl-1,3,4-thiadiazole]	–
88.8	169	CCCCCc1cnc(N2CCC(CCCOc3cc(F)c(-c4nnc(C(C)C)s4)c(F)c3)CC2)nc1 [Example 62, 2-(2,6-difluoro-4-(3-(1-(5-pentylpyrimidin-2-yl)piperidin-4-yl)propoxy)phenyl)-5-isopropyl-1,3,4-thiadiazole]	–
114	228	CC(C)c1nnc(-c2c(F)cc(OCCCC3CCN(c4ncc(F)cn4)CC3)cc2F)s1 [Example 63, 2-(2,6-difluoro-4-(3-(1-(5-fluoropyrimidin-2-yl)piperidin-4-yl)propoxy)phenyl)-5-isopropyl-1,3,4-thiadiazole]	–
95.6	120	CCc1cnc(N2CCC(CCCOc3cc(F)c(-c4nc(CC)cs4)c(F)c3)CC2)nc1 [Example 66, 4-ethyl-2-(4-(3-(1-(5-ethylpyrimidin-2-yl)piperidin-4-yl)propoxy)-2,6-difluorophenyl) thiazole]	–

More lines, now with the values behind:

SMILES	Emax at 0.001 µM [2] [%]	Emax at 0.01 µM [2] [%]	inhibition in vivo at 10 mg/kg [1] [%]
Cc1nc(-c2c(F)cc(OCCCC3CCN(c4nc(C(C)C)no4)CC3)cc2F)no1 [Example 39, 3-(2,6-difluoro-4-(3-(1-(3-isopropyl-1,2,4-oxadiazol-5-yl)piperidin-4-yl)propoxy)phenyl)-5-methyl-1,2,4-oxadiazole]	120	201	–
CC(C)c1noc(N2CCC(CCCOc3cc(F)c(-c4noc(CO)n4)c(F)c3)CC2)n1 [Example 41, (3-(2,6-difluoro-4-(3-(1-(3-isopropyl-1,2,4-oxadiazol-5-yl)piperidin-4-yl)propoxy)phenyl)-1,2,4-oxadiazol-5-yl)methanol]	74.4	203	–
Cc1nnc(-c2c(F)cc(OCCCC3CCN(c4cnc(Cl)cn4)CC3)cc2F)o1 [Example 49, 2-(4-(3-(1-(5-chloropyrazin-2-yl)piperidin-4-yl)propoxy)-2,6-difluorophenyl)-5-methyl-1,3,4-oxadiazole]	83.4	121	–
CCCc1noc(N2CCC(CCCOc3cc(F)c(-c4nnc(C)o4)c(F)c3)CC2)n1 [Example 52, 5-(4-(3-(3,5-difluoro-4-(5-methyl-1,3,4-oxadiazol-2-yl)phenoxy)propyl)piperidin-1-yl)-3-propyl-1,2,4-oxadiazole]	191	295	–
CCCc1noc(N2CCC(CCCOc3cc(F)c(-c4nnc(CC)o4)c(F)c3)CC2)n1 [Example 53, 5-(4-(3-(3,5-difluoro-4-(5-ethyl-1,3,4-oxadiazol-2-yl)phenoxy)propyl)piperidin-1-yl)-3-propyl-1,2,4-oxadiazole]	94.3	154	–
CCCc1noc(N2CCC(CCCOc3cc(F)c(-c4nnc(C(C)C)o4)c(F)c3)CC2)n1 [Example 54, 5-(4-(3-(3,5-difluoro-4-(5-isopropyl-1,3,4-oxadiazol-2-yl)phenoxy)propyl)piperidin-1-yl)-3-propyl-1,2,4-oxadiazole]	75.1	241	–
Cc1nnc(-c2c(F)cc(OCCCC3CCN(c4nc(CC(F)(F)F)no4)CC3)cc2F)o1 [Example 58, 5-(4-(3-(3,5-difluoro-4-(5-methyl-1,3,4-oxadiazol-2-yl)phenoxy)propyl)piperidin-1-yl)-3-(2,2,2-trifluoroethyl)-1,2,4-oxadiazole]	699	–	–
CC(C)c1nc(N2CCC(CCCOc3cc(F)c(-c4nnc(C(C)C)o4)c(F)c3)CC2)no1 [Example 59, 3-(4-(3-(3,5-difluoro-4-(5-isopropyl-1,3,4-oxadiazol-2-yl)phenoxy)propyl)piperidin-1-yl)-5-isopropyl-1,2,4-oxadiazole]	140	329	–
CC(C)c1nnc(-c2c(F)cc(OCCCC3CCN(c4ncc(C(F)(F)F)cn4)CC3)cc2F)s1 [Example 64, 2-(2,6-difluoro-4-(3-(1-(5-(trifluoromethyl)pyrimidin-2-yl)piperidin-4-yl)propoxy)phenyl)-5-isopropyl-1,3,4-thiadiazole]	77	179	–
CC(C)c1nnc(-c2c(F)cc(OCCCC3CCN(c4ccc(C(F)(F)F)cn4)CC3)cc2F)s1 [Example 65, 2-(2,6-difluoro-4-(3-(1-(5-(trifluoromethyl)pyridin-2-yl)piperidin-4-yl)propoxy)phenyl)-5-isopropyl-1,3,4-thiadiazole]	78.1	189	–
